From US20130252334A1, “METHOD OF USING TET-INDUCIBLE TRANSGENES” (UNIVERSITY OF ROCHESTER, priority 2010, published 2013)
Read-outs that look alike come from different tables or passages of the source.

Tested on: caspase-3 cleavage
Conditions: 2.5 μg/ml; for suppression of hypoxia-induced caspase-3 cleavage after pulse dosing: 16 hours washout, hypoxia 0.5% O2 24 hours; for caspase-3 cleavage, both dosing protocols: continuous or pulse, hypoxia
Experimental: Cells were exposed to 0.5% O2 for 18 hours unless otherwise specified.

Compound	suppression of hypoxia-induced caspase-3 cleavage after pulse dosing (12 hours pulse)	suppressive effect on caspase-3 cleavage vs washout period length (12 hours pulse, washout 0, 12, 24 hours, hypoxia 0.5% O2 18 hours)	caspase-3 cleavage, both dosing protocols	suppression of hypoxia-induced caspase-3 cleavage after pulse dosing (12 hours pulse, listed as doxycycline)
C[C@H]1c2ccc(C(C)(C)C)c(O)c2C(O)=C2C(=O)[C@]3(O)C(O)=C(C(N)=O)C(=O)[C@@H](N(C)C)[C@@H]3[C@@H](O)[C@@H]21 [9-TB, 9-t-butyl doxycycline]	less impressive	augmented by shorter washout periods with a sharp decline occurring between the 12 and 24-hour chase periods	both drugs interfered with caspase-3 cleavage	
CC1c2cccc(O)c2C(=O)C2=C(O)C3(O)C(=O)C(C(N)=O)=C(O)C(N(C)C)C3C(O)C21 (stereo not drawn) [Dox, 4-[Dimethylamino]-1,4,4a,5,5a,6,11,12a-octahydro-3,5,10,12,12apentahydroxy-6-methyl-1,11-dioxo-2-naphthacenecarboxamide]	ameliorated dox-mediated suppression		both drugs interfered with caspase-3 cleavage	did ameliorate its suppressive effects on caspase cleavage
